This note sets out measurements from patent US10899754B2, “Modulators of indoleamine 2,3-dioxygenase” (GLAXOSMITHKLINE INTELLECTUAL PROPERTY DEVELOPMENT LIMITED, priority 2016, dated 2021).

Format in all cases: cell-based
Data set [1] relates to human epithelial HeLa cells. Briefly: HeLa cytotoxicity assay (CellTiter-Glo). The following applies: pCC50. In a few lines: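 HeLa cells (5,000/well) stimulated with 10 nM IFN-γ, exposed to 11-point 3-fold compound dilutions for 2 days at 37 °C; viability by CellTiter-Glo ATP luminescence. Normalized to cell-free (100% cytotoxicity) and stimulated-cell DMSO (0%) controls; four-parameter fit gives pCC50.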
For orientation: In ATP-based viability assays light output follows the ATP content of the culture.

In data set [2] the target is T1, indoleamine 2, 3-dioxygenase (IDO1) (Homo sapiens, UniProt P14902). Briefly: IDO1 PBMC RapidFire MS assay (kynurenine detection by mass spectrometry). Also on record: to induce the expression of indoleamine 2, 3-dioxygenase (IDO1); host or cells: human PBMC stimulated with IFN-gamma and LPS. The following applies: human PBMC stimulated with IFN-γ and LPS, 2 days, pIC50, read-out: PBMC PXC50 (converted). In a few lines:
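PBMCs (50,000 cells/well) stimulated with IFN-γ 100 ng/ml plus LPS 50 ng/ml, treated with 11-point 3-fold compound series for 2 days at 37° C. Supernatant kynurenine measured by RapidFire MS, normalised to internal standard; parallel cytotoxicity by CellTiter-Glo luminescence; curves fitted for XC50.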

For data set [3], the target named is T1, indoleamine 2, 3-dioxygenase (IDO1). Briefly: IDO1 HeLa RapidFire MS assay (kynurenine detection by mass spectrometry). Also on record: to induce the expression of indoleamine 2, 3-dioxygenase (IDO1). As to conditions: HeLa cells, pIC50, read-out: IDO1_HELA_PXC50 (converted). In a few lines: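 Compound potency reported as pIC50 from kynurenine/internal-standard ratio (RapidFire MS) in supernatant of IFN-γ-induced (10 nM) HeLa cells, 5,000 per well, after 2 days' treatment with 11-point dilutions. Cytotoxicity in the same format by luminescent ATP detection, reported as pCC50.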

In data set [4] the test system is human peripheral blood mononuclear cells (PBMC). Description: PBMC cytotoxicity assay (CellTiter-Glo). As to conditions: 2 days, pCC50. In a few lines: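 Human PBMC (50,000 cells/well) stimulated with IFN-γ 100 ng/ml and LPS 50 ng/ml were exposed to 11-point 3-fold compound dilutions for 2 days at 37 °C, 5% CO2. Viability read by CellTiter-Glo ATP luminescence and normalized to no-cell and stimulated-DMSO controls. XC50 derived by four-parameter fit.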

T1 sequence (P14902 whole entry): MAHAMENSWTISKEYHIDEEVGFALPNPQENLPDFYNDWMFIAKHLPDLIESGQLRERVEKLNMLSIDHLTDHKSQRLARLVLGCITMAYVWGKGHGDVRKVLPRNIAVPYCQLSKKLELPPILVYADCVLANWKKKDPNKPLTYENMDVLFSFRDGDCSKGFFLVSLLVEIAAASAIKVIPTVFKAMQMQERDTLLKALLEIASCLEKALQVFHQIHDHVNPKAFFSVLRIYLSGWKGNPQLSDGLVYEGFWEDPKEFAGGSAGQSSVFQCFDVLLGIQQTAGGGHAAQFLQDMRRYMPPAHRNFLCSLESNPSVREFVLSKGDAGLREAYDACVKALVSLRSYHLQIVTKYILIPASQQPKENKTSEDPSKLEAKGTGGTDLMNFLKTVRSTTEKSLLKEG

On to `CC[C@H](CC(=O)O)c1ccc(N(CC(C)C)CC(C)C)c(Nc2nc(C(F)(F)F)ns2)c1` [Example 39, (R)-3-(4-(diisobutylamino)-3-((3-(trifluoromethyl)-1,2,4-thiadiazol-yl)amino)phenyl)pentanoic Acid], for which the HELA_IDO1_TOX_PXC50 in data set [1] is reported as below 5. Further, the IC50 is 1 nM in data set [2] and 2.51 nM in data set [3]. Further, the “PBMC TOX PXC50” value in data set [4] was below 5.
In data set [1], `CC(C)CN(c1ccc([C@H](C)CC(=O)O)cc1Nc1nnc(C2CC2)[nH]1)C1CCOCC1` [example 210, (3R)-3-{3-[(5-cyclopropyl-4H-1,2,4-triazol-3-yl)amino]-4-[(2-methylpropyl)(oxan-4-yl)amino]phenyl}butanoic acid] had an HELA_IDO1_TOX_PXC50 below 5. In addition, the results for the IC50 in data set [2] and in data set [3] were 39.8 nM and 50.1 nM, respectively. Moreover, the “PBMC TOX PXC50” value in data set [4] is listed as below 5.
In data set [1], `CC(C)CN(c1ccc([C@H](C)CC(=O)O)cc1Nc1ccc(Cl)nc1)[C@H]1CC[C@@H](O)CC1` [Example 58, (R)-3-(3-((6-chloropyridin-3-yl)amino)-4-(((1s,4S)-4-hydroxycyclohexyl) (isobutyl)amino)phenyl)butanoic Acid] returned an HELA_IDO1_TOX_PXC50 below 5. For the same compound, the IC50 in data set [2] was 7.94 nM; in data set [3], 10 nM. In addition, the “PBMC TOX PXC50” value in data set [4] is reported as below 5.
In the case of `COCCN(c1ccc(-c2ccccc2C(=O)O)cc1Nc1nc2ccccc2o1)C1CCCCC1` [example 284, 3′-[(1,3-benzoxazol-2-yl)amino]-4′-[cyclohexyl(2-methoxyethyl)amino]-[1,1′-biphenyl]-2-carboxylic acid], the HELA_IDO1_TOX_PXC50 in data set [1] is reported as below 5. For the same compound, the IC50 was 200 nM in data set [2] and 398 nM in data set [3]. Further, the “PBMC TOX PXC50” value in data set [4] is below 5.
With `COCCc1nnc(Nc2cc([C@H](C)CC(=O)O)ccc2N(CC(C)C)C2CCCCC2)[nH]1` [example 214, (3R)-3-{4-[cyclohexyl(2-methylpropyl)amino]-3-{[5-(2-methoxyethyl)-4H-1,2,4-triazol-3-yl]amino}phenyl}butanoic acid], the HELA_IDO1_TOX_PXC50 in data set [1] is recorded as below 5. Moreover, the IC50 in data set [2] and in data set [3] was 12.6 nM each time. The “PBMC TOX PXC50” value in data set [4] is below 5.
On to `CC[C@@H](CC(=O)O)c1ccc(N(CC(C)C)C2CCCCC2)c(Nc2nc(Cl)ns2)c1` [example 166, (3S)-3-{3-[(3-chloro-1,2,4-thiadiazol-5-yl)amino]-4-[cyclohexyl(2-methylpropyl)amino]phenyl}pentanoic acid], for which the HELA_IDO1_TOX_PXC50 in data set [1] was below 5. The IC50 was 0.316 nM in data set [2] and 10 nM in data set [3]. Besides, in data set [4], the “PBMC TOX PXC50” value stood at 5.1.
The corresponding values for `CC(C)CN(c1ccc([C@H](C)CC(=O)O)cc1Nc1nc(C(F)(F)F)ns1)C1CCN(S(C)(=O)=O)CC1` [Example 71] are below 5, 5.01 nM, 20 nM and below 5.
`CC(C)CN(c1ccc(-c2cccnc2C(=O)O)cc1Nc1nc2ccccc2o1)C1CCCCC1` [example 290, 3-{3-[(1,3-benzoxazol-2-yl)amino]-4-[cyclohexyl(2-methylpropyl)amino]phenyl}pyridine-2-carboxylic acid] registered an HELA_IDO1_TOX_PXC50 in data set [1] below 5. Besides, the IC50 in data set [2] was 50.1 nM; in data set [3], 126 nM. Besides, the “PBMC TOX PXC50” value in data set [4] was below 5.
The compound `CC(C)CN(c1ccc(-c2cccnc2C(=O)O)cc1Nc1nc(C(F)(F)F)ns1)C1CCCCC1` [Example 88, 3-(4-(cyclohexyl(isobutyl)amino)-3-((3-(trifluoromethyl)-1,2,4-thiadiazol-5-yl)amino)phenyl)picolinic Acid] displayed an HELA_IDO1_TOX_PXC50 in data set [1] below 5. The results for the IC50 in data set [2] and in data set [3] were 3.98 nM and 5.01 nM, respectively. Further, the “PBMC TOX PXC50” value in data set [4] is recorded as below 5.
In turn, `CC(C)CN(c1ccc([C@H](C)CC(=O)O)cc1Nc1nnc(C(N)=O)s1)C1CCCCC1` [Example 81, (R)-3-(3-((5-Carbamoyl-1,3,4-thiadiazol-2-yl)amino)-4-(cyclohexyl(isobutyl)amino)phenyl)butanoic] showed an HELA_IDO1_TOX_PXC50 in data set [1] below 5. In addition, the IC50 in data set [2] is 3.98 nM; in data set [3], 7.94 nM. In addition, the “PBMC TOX PXC50” value in data set [4] is reported as below 5.
With `COCC(=O)N1CCC(N(CC(C)C)c2ccc([C@H](C)CC(=O)O)cc2Nc2nc(C(F)(F)F)ns2)CC1` [Example 72, (R)-3-(4-(isobutyl(1-(2-methoxyacetyl)piperidin-4-yl)amino)-3-((3-(trifluoromethyl)-1,2,4-thiadiazol-5-yl)amino)phenyl)butanoic Acid], in data set [1], the HELA_IDO1_TOX_PXC50 is given as below 5. The results for the IC50 in data set [2] and in data set [3] were 10 nM and 39.8 nM, respectively. Besides, the “PBMC TOX PXC50” value in data set [4] is recorded as below 5.
`CC(C)CN(c1ccc(C(C)(C)CC(=O)O)cc1Nc1ccc(Cl)cn1)C1CCOCC1` [Example 4, 3-(3-((5-chloropyridin-2-yl)amino)-4-(isobutyl(tetrahydro-2H-pyran-4-yl)amino)phenyl)-3-methylbutanoic Acid] showed an HELA_IDO1_TOX_PXC50 in data set [1] below 5. The IC50 was 3.98 nM in data set [2] and 6.31 nM in data set [3]. Further, the “PBMC TOX PXC50” value in data set [4] was below 5.
`CC(C)CN(c1ccc(-c2ccccc2C(=O)O)cc1Nc1nc(C(F)(F)F)ns1)C1CCN(c2nc(C(F)(F)F)ns2)CC1` [Example 92, 4′-(isobutyl(1-(3-(trifluoromethyl)-1,2,4-thiadiazol-5-yl)piperidin-4-yl)amino)-3′-((3-(trifluoromethyl)-1,2,4-thiadiazol-5-yl)amino)-[1,1′-biphenyl]-2-carboxylic Acid] registered an HELA_IDO1_TOX_PXC50 in data set [1] below 5. For the same compound, the IC50 in data set [2] was 1 nM; in data set [3], 5.01 nM. Besides, in data set [4], the “PBMC TOX PXC50” value was 6.1.
The corresponding values for `CC(C)CN(c1ccc(C(C)CC(=O)O)cc1NCc1ccccn1)C1CCCCC1` (centres unmarked) [example 161, 3-{4-[cyclohexyl(2-methylpropyl)amino]-3-{[(pyridin-2-yl)methyl]amino}phenyl} butanoic acid] are below 5, 2000 nM, 2510 nM and below 5.
As for `CC(C)CN(c1ccc(C(C)OCC(=O)O)cc1Nc1ccc(C#N)cn1)C1CCCCC1` (centres unmarked) [Example 113, 2-(1-(3-((5-cyanopyridin-2-yl)amino)-4-(cyclohexyl(isobutyl)amino)phenyl)ethoxy)acetic Acid], the HELA_IDO1_TOX_PXC50 in data set [1] is on record as below 5. Besides, the IC50 in data set [2] was 5.01 nM; in data set [3], 10 nM. In addition, in data set [4], the “PBMC TOX PXC50” value was below 5.
With `CC(C)CN(c1ccc(C(C)CC(=O)O)cc1NC1=N[C@@H](C)CO1)C1CCCCC1` (stereo partly drawn) [example 152, 3-{4-[cyclohexyl(2-methylpropyl)amino]-3-{[(4S)-4-methyl-4,5-dihydro-1,3-oxazol-2-yl]amino}phenyl}butanoic acid], the HELA_IDO1_TOX_PXC50 in data set [1] is reported as 5.4. The IC50 in data set [2] and in data set [3] was 3160 nM throughout. In data set [4], the “PBMC TOX PXC50” value is below 5.
In data set [1], `Cc1nc(C)c(Nc2cc(C(C)CC(=O)O)ccc2N(CC(C)C)CC(C)C)s1` (centres unmarked) [example 139, 3-{4-[bis(2-methylpropyl)amino]-3-[(2,4-dimethyl-1,3-thiazol-5-yl)amino]phenyl}butanoic acid] had an HELA_IDO1_TOX_PXC50 below 5. Moreover, the IC50 in data set [2] and in data set [3] was above 10000 nM in each case. Besides, the “PBMC TOX PXC50” value in data set [4] is on record as below 5.
`CC(C)CN(c1ccc([C@H](C)CC(=O)O)cc1Nc1ccc(C(F)(F)F)cn1)C1CCCCC1` [Example 76, (R)-3-(4-(cyclohexyl(isobutyl)amino)-3-((5-(trifluoromethyl)pyridin-2-yl)amino)phenyl)butanoic Acid] yielded an HELA_IDO1_TOX_PXC50 in data set [1] below 5. Further, the IC50 in data set [2] was 2.51 nM; in data set [3], 3.98 nM. For the same compound, the “PBMC TOX PXC50” value in data set [4] is recorded as below 5.
Compound `CC[C@H](CC(=O)O)c1ccc(N(CC(C)C)CC(C)C)c(Nc2nc(Cl)ns2)c1` [Example 40, (R)-3-(3-((3-chloro-1,2,4-thiadiazol-5-yl)amino)-4-(diisobutylmino)phenyl)pentanoic Acid] had an HELA_IDO1_TOX_PXC50 in data set [1] below 5. Also, the values for the IC50 in data set [2] and in data set [3] were 2.51 nM and 12.6 nM, respectively. In addition, the “PBMC TOX PXC50” value in data set [4] was below 5.
In data set [1], `CC(C)CN(c1ccc(-c2ccccc2C(=O)O)cc1Nc1nc2ccccc2o1)C1CCOCC1` [example 291, 3′-[(1,3-benzoxazol-2-yl)amino]-4′-[(2-methylpropyl)(oxan-4-yl)amino]-[1,1′-biphenyl]-2-carboxylic acid] displayed an HELA_IDO1_TOX_PXC50 below 5. The values for the IC50 in data set [2] and in data set [3] were 126 nM and 100 nM, respectively. For the same compound, in data set [4], the “PBMC TOX PXC50” value was below 5.
